The values below come from patent publication US20060270607A1, “Pharmaceutical combinations” (priority 1999, published 2006).

Experiment [1] has as its system platelet P-selectin expression. The experiment can be described thus: ADP-induced platelet P-selectin expression in human washed platelets. In kind it is cell-based. The note with it: ADP 10 μM, GR144053 10 μM, compound B 10 nM, Mean ± se (n = 3), Control 13.1 ± 3.3. The method, then: P-selectin expression on the platelet membrane surface plays an important role in platelet-leukocyte-conjugate formation and there is increasing evidence that such interactions play an important role in both acute thrombosis and in the inflammatory aetiology of progressive atheroscerosis. The effect of a P2T-receptor antagonist (compound B) on ADP (10 μM)-induced platelet P-selectin expression was investigated in human washed platelets. The effect of compound B (10 nM) was compared with that of the GPIIb/IIIa antagonist, GR144053 (10 μM, Foster et al (1993) Thromb Haemostas; 69(6):559, synthesized in AstraZeneca R & D, Charnwood). These concentrations are 4 (compound B)—and 600 (GR144053)—fold higher than the respective IC50 values for inhibition of ADP-induced platelet aggregation in this system.

Experiment [2] has as its system ADP-induced platelet aggregation. The experiment can be described thus: ADP-induced platelet aggregation, whole blood impedance aggregometry. The experiment is classed as cell-based. Particulars: human blood ex vivo; for Aggregation, ADP 10 μM, −compound A: n = 7-8. On the procedure: Human Blood In Vitro—Compound A and Clopidogrel
Compound A (500 nM final concentration) was added to blood from healthy human volunteers receiving clopidogrel (Sanofi-Winthrop, 75 mg/day for 11 days). ADP-induced platelet aggregation (+/−compound A) was measured using whole blood impedance aggregometry.

Take `Cl.Cl.Cl.N=C(N)c1ccc(N2CCN(C3CCN(CC(=O)O)CC3)CC2)cc1` [GR144053]: the “P-selectin expression (% positive cells)” value in experiment [1] was determined as 17.7 ± 1.7 % positive cells.
Consider `COC(=O)[C@H](c1ccccc1Cl)N1CCc2sccc2C1` [clopidogrel], for which the “Inhibition of the ADP response (in words)” value in experiment [2] (clopidogrel alone, 75 mg/day for 11 days) was “slowly developing, incomplete inhibition”. The “Aggregation, ADP 10 μM, −compound A” value stood at 13.8 ± 2.3 ohms in experiment [2] (oral clopidogrel 75 mg/day for 1 day, mean ± SD); 11.8 ± 3.4 ohms in experiment [2] (oral clopidogrel 75 mg/day for 2 days, mean ± SD); 10.2 ± 4.5 ohms in experiment [2] (oral clopidogrel 75 mg/day for 3 days, mean ± SD); 8.2 ± 4.4 ohms in experiment [2] (oral clopidogrel 75 mg/day for 11 days, mean ± SD). For the same compound, the “Aggregation, ADP 300 μM, −compound A” value was 13.9^(n=1) ohms in experiment [2] (oral clopidogrel 75 mg/day for 3 days, n=1) and 11.4 ± 5.2^(n=3) ohms in experiment [2] (oral clopidogrel 75 mg/day for 11 days, mean ± SD, n=3).
